Measured values taken from patent US4288609A, “Quaternary ammonium derivatives of adamantane with antimicrobic activity” (priority 1976, dated 1981).
“And” between values parts separate entries of the source, which are not always exact repeats. Identical values can stand only once. Like-named read-outs stand apart in the source and are kept apart here.

Experiments:
[1] = tested on: Candida albicans; assay: Activity upon vaginal candidiasis in mice (Table 7); assay type: in vivo, female Swiss mice (Charles River CD1); conditions: for proliferation index (individual): eighth day
Description: The treatment groups consist each of 8 female Swiss mice (Charles River CD1) of average weight 20 g. The animals are infected with 0.025 ml of a 24 hour culture of Candida albicans, equal to 10^6 cellules.
0.025 ml of a suspension in lanoline of the compound to be tested, at the desired concentration, are applied locally twice a day for a week, the first treatment being started five hours after infection.
The control group is treated with the lanoline alone in the same way. On the eighth day vaginal washings are carried out with 0.025 ml of sterile physiological solution, and the liquid is sown in Petri dishes containing Bacto Biggy Agon Difco as a selective growing medium for the Candida.
After 48 hours of incubation of the dishes at 30° C. a count is taken of the colonies which have grown. Assessment of the activity is quantized using the indices listed here below:
The results are expressed as percentages of the average index of seriousness of the infection A.D.I. (Average Degree of Infection) in the animals treated with respect to the animals in the control group.
The substances under examination were tested at concentrations of 5 and 3% by weight.

[2] = tested on: Pseudomonas Aeruginosa; assay: Antibacterial activity in vivo with topical treatment (Table 5); parameters: species or system female CF1 albino mice; conditions: for animals alive on the 15th day / animals dead on the 15th day: 10 animals; for % survivors: topical, 15th day; for efficacy in vivo (in words): other concentrations considered
Description: After their backs have been shaved, female CF1 albino mice weighing 18-22 g are scorched (under ether anaesthetic) for 15 seconds with a pad of brass previously immersed in boiling water (7-8% of the body surface). After 90 minutes there is applied to the scorched area 0.1 ml of a suspension of Pseudomonas Aeruginosa bacteria having 15% transmittance at 650 nm. The bacterial strain in question produces a high incidence of mortality, induced by septicemic diffusion from the point of infection. After 90 minutes, with the aid of a glass rod suitably flattened at one end, the preparation containing a known concentration of the compound under examination is applied locally. The treatment is continued for a total of six days (once per day). On the fifteenth day the percentage of survivors to the tested doses in recorded.
The carrier used for applying the compounds under examination is an aqueous 0.75% solution of carboxymethyl-cellulose. The concentrations of the compounds tested are 2, 1, 0.5 and 0.25% by weight.

[3] = tested on: Trich. Vaginalis ISM 66/22; assay: MIC protozoa, Trichomonas vaginalis (Table 2); assay type: cell-based; conditions: +10% serum (head), Kupferberg Trichomonas broth with 5% of horse serum
Description: (§1) The method for evaluating the activity in vitro against bacteria, fungi and protozoa consists in introducing calculated quantities of the substance, the activity of which it is desired to test, into culture media already inoculated with a predetermined number of test germs.
(§2) After 24 or 48 hours of incubation at 30° or 37° C., according to the micro-organism being tested, it is possible to evaluate the growth of the same in the culture broth; in this manner the minimum concentration (M.I.C.) which inhibits the growth of the micro-organisms in vitro is determined.
Inoculation with Trichomonas vaginalis and Trichomonas foetus, obtained from cultures transplanted every other day to make them lively, was effected in a ratio of 3.5% of the volume of medium used.
(§3) For the fungi Sabourand broth was used as a culture medium, whilst for the protozoa Kupferberg Trichomonas broth with 5% of horse serum was used.

[4] = tested on: Candida Pseudotrop. ATCC 2512; assay: MIC yeasts, Candida pseudotropicalis (Table 2); assay type: cell-based; conditions: Sabourand broth
Description: as §1, §2
Inoculation with Candida albicans or Candida pseudotropicalis was made by diluting cultures grown for 24 h at 30° C. (cellular density inoculated 10^3 /ml).
as §3

[5] = tested on: Trichophyton Mentagrophytes; assay: Topical activity upon dermatophytis from Trichophyton in cavies (Table 6); assay type: in vivo, Albino cavies; conditions: for evaluation of seriousness of infection (A.D.I.): average index
Description: Albino cavies of 250-300 g are infected, after depilation and scarification of a circular area of dorsal skin upon which there are supplied 0.1 ml of a suspension of microconidia of Trichophyton Mentagrophytes from the Pasteur Institute collection, obtained from a culture of 15 days upon Saboureaud agar. 24 Hours after infection topical treatment is started and is continued for two weeks (once per day).
The compounds to be tested are dissolved or suspended at the desired concentration, in a water-alcohol mixture (75/25 v/v) containing 0.75% by weight of carboxymethyl-cellulose (CMC). […] Each single application is carried out using 0.25 ml of the suspension or solution obtained as described above.
Fourteen days after infection the lesions are assessed. Assessment is carried out by attributing index numbers depending upon the seriousness of the lesions formed, as follows:
The substances under examination were tested at concentrations of 5 and 2.5% by weight.

[6] = tested on: Streptococ. Henclyt. 0203; assay: M.I.C. in vitro, gram+ Streptococ. Henclyt. (Table 1); assay type: cell-based; conditions: for MIC: read-out: M.I.C.
Description: as §1, §2
(§4) In table 1 there are recorded the M.I.C. values in γ/ml of the products subject of the present invention, against certain gram+ and gram- bacterial strains, some of which are pathogenic towards human beings.

[7] = tested on: gram+ and gram- bacterial strains; assay: Activity in vitro on gram+ and gram- bacteria, overall; assay type: cell-based; conditions: gram positive and gram negative strains, low concentrations
Description: as §1, §2, §4

[8] = tested on: all the micro-organisms tested; assay: Speed of sterilising action, all micro-organisms; assay type: cell-based; conditions: even with a very low concentration
Description: The strains, inoculants, culture broths and experimental methods are as already seen for calculating the M.I.C. in vitro. The antimicrobic substances were tested at concentrations of 0.1, 0.25, 0.5 and 1 g/l, the contact times taken into consideration are 0, 1, 2.5, 5, 7.5, 10, 15, 30 and 60 minutes.
The samples which at the 7th day of incubation still had no growth of micro-organisms which could be observed macroscopically and/or microscopically were considered sterile.
The results are recorded in Table 3 in terms of sterilization time expressed in minutes.

[9] = tested on: Staph.Aureus Tour; assay: M.I.C. in vitro, gram+ Staph. Aureus (Table 1); assay type: cell-based, Staphylococcus Aureus; conditions: for MIC: Staphylococcus aureus, read-out: M.I.C.
Description: as §1, §2, §4

[10] = tested on: Trych. Mentagr. 1st.Pastuer; assay: MIC mildews, Trichophyton mentagrophytes (Table 2); assay type: cell-based; conditions: Sabourand broth
Description: as §1, §2
Inoculation with Trichophyton mentagrophytes and Microsporum canis was effected in a ratio of 1% of the volume of medium used.
as §3

[11] = Trichomonas vaginalis, read-out: MIC
[12] = Candida, ATCC2512, +10% serum, read-out: MIC
[13] = Candida, ATCC2512, without serum, read-out: MIC
[14] = Trichophyton mentagrophytes, +10% serum, read-out: MIC
[15] = Trichophyton mentagrophytes, without serum, read-out: MIC

SMILES | % of healing (100-A.D.I. %) ([1]; 3% by weight) [%] | A.D.I. (compared with controls) ([1]; 3% by weight) [%] | average proliferation index (A.D.I) ([1]; 3% by weight) | % of healing (100-A.D.I. %) ([1]; 5% by weight) [%] | A.D.I. (compared with controls) ([1]; 5% by weight) [%] | average proliferation index (A.D.I) ([1]; 5% by weight) | topical in vivo activity against Candida albicans (in words) ([1]; mouse, in vivo) | animals alive on the 15th day ([2]; 0.25% by weight) | animals dead on the 15th day ([2]; 0.25% by weight) | % survivors ([2]; 0.25% by weight) [%] | animals alive on the 15th day ([2]; 0.5% by weight) | animals dead on the 15th day ([2]; 0.5% by weight) | animals alive on the 15th day ([2]; 1% by weight) | animals dead on the 15th day ([2]; 1% by weight) | % survivors ([2]; 1% by weight) [%] | animals alive on the 15th day ([2]; 2% by weight) | animals dead on the 15th day ([2]; 2% by weight) | % survivors ([2]; 2% by weight) [%] | efficacy in vivo (in words) [2] | in vivo activity against Trichophyton Mentagrophytes (in words) [5] | also measured
CCCCCCCCCC[N+](C)(C)CCOC(=O)C12CC3CC(CC(C3)C1)C2 (single isomer, unassigned) [Example 1, n-Decyl-dimethyl-(1-adamantane-carboxy)-ethyl-ammonium bromide] | 63.03 | 36.97 | 0.88 | 84.03 | 15.97 | 0.38 | excellent topical activity "in vivo" even against Candida albicans | 5 | 5 | 50 | 6 | 4 | 8 | 2 | 80 | 8 | 2 | 80 | secure efficacy | excellent "in vivo" activity against Trichophyton Mentagrophytes | no. of animals surviving ([1]; mouse, in vivo): 8; tolerance by vaginal mucous membrane ([1]; mouse, in vivo): perfectly tolerated by very delicate tissues; MIC [3]: 5 µg/mL; MIC ([4]; +10% serum): 20 µg/mL; MIC ([4]; without serum): < 0.1 µg/mL; A.D.I. (% of control group) ([5]; 2.5% by weight): 31.09%; healing % (100-A.D.I. %) ([5]; 2.5% by weight): 68.91%; evaluation of seriousness of infection (A.D.I.) ([5]; 2.5% by weight): 0.83; A.D.I. (% of control group) ([5]; 5% by weight): 12.36%; healing % (100-A.D.I. %) ([5]; 5% by weight): 87.64% and ~90%; evaluation of seriousness of infection (A.D.I.) ([5]; 5% by weight): 0.33; M.I.C. ([6]; +10% serum): 0.1 µg/mL; MIC ([6]; without serum): < 0.1 µg/mL; antibacterial activity (in words) [7]: powerful antibacterial activity at low concentrations; sterilising action (in words) [8]: swift sterilising action on all the micro-organisms tested; M.I.C. ([9]; +10% serum): 2 µg/mL; MIC ([9]; without serum): < 0.1 µg/mL; MIC ([10]; +10% serum): 5 µg/mL; MIC ([10]; without serum): 0.1 µg/mL
CCCCCCCCCCCC[N+](C)(C)CCOC(=O)C12CC3CC(CC(C3)C1)C2 [Example 4] | 57.98 | 42.02 | 1.00 | 84.03 | 15.97 | 0.38 | excellent topical activity "in vivo" even against Candida albicans | 4 | 6 | 40 | 6 | 4 | 6 | 4 | 60 | 7 | 3 | 70 | secure efficacy | excellent "in vivo" activity against Trichophyton Mentagrophytes | no. of animals surviving ([1]; 3% by weight, 8 animals): 8; proliferation index (individual) ([1]; 3% by weight): 2-0-1-1-1-1--0-2; no. of animals surviving ([1]; 5% by weight, 8 animals): 8; tolerance by vaginal mucous membrane ([1]; mice, local): perfectly tolerated by very delicate tissues; % survivors ([2]; 0.5% by weight): 60%; MIC [3, 11]: 5 µg/mL; MIC [4, 12]: 50 µg/mL; MIC [4, 13]: 0.1 µg/mL; MIC ([6]; +10% serum): 0.3 µg/mL; MIC ([6]; without serum): < 0.1 µg/mL; antibacterial activity (in words) [7]: powerful antibacterial activity at low concentrations; sterilising action (in words) [8]: swift sterilising action on all the micro-organisms tested; MIC ([9]; +10% serum): 5 µg/mL; MIC ([9]; without serum): < 0.1 µg/mL; MIC [10, 14]: 5 µg/mL; MIC [10, 15]: 0.1 µg/mL
CCCCCCCCCCCC[N+](C)(C)CCNC(=O)C12CC3CC(CC(C3)C1)C2 [Example 8] | 63.03 | 36.97 | 0.88 | 78.99 | 21.01 | 0.50 | excellent topical activity "in vivo" even against Candida albicans | 3 | 7 | 30 | 6 | 5 | 6 | 4 | 60 | 7 | 3 | 70 | secure efficacy | excellent "in vivo" activity against Trichophyton Mentagrophytes | proliferation index (individual) ([1]; 3% by weight): 0-1-1-3-0-0-0-2; no. of animals surviving ([1]; 5% by weight, 8 animals): 2; proliferation index (individual) ([1]; 5% by weight): 0-0-0-2-1-0-0-1; tolerance by vaginal mucous membrane ([1]; mice, local): perfectly tolerated by very delicate tissues; % survivors ([2]; 0.5% by weight): 60%; MIC [3, 11]: 2 µg/mL; MIC [4, 12]: 20 µg/mL; MIC [4, 13]: < 0.1 µg/mL; MIC ([6]; +10% serum): 1 µg/mL; MIC ([6]; without serum): < 0.1 µg/mL; antibacterial activity (in words) [7]: powerful antibacterial activity at low concentrations; sterilising action (in words) [8]: swift sterilising action on all the micro-organisms tested; MIC ([9]; +10% serum): 5 µg/mL; MIC ([9]; without serum): < 0.1 µg/mL; MIC [10, 14]: 5 µg/mL; MIC [10, 15]: 0.1 µg/mL
